This passage reports melting point and IC50 results from patent publication US6380387B1, “4-Pyrimidinyl-n-acyl-l phenylalanines” (Hoffmann-La Roche Inc., priority 1999, dated 2002).

One series deals with T1, alpha4-beta7 (Homo sapiens, UniProt P13612+P26010).
T1 construct: Sufficient RPMI 8866 cells were removed from stock for assay; endogenous in cells; host or cells: RPMI 8866 cells
T1 sequence (P13612 34-1032): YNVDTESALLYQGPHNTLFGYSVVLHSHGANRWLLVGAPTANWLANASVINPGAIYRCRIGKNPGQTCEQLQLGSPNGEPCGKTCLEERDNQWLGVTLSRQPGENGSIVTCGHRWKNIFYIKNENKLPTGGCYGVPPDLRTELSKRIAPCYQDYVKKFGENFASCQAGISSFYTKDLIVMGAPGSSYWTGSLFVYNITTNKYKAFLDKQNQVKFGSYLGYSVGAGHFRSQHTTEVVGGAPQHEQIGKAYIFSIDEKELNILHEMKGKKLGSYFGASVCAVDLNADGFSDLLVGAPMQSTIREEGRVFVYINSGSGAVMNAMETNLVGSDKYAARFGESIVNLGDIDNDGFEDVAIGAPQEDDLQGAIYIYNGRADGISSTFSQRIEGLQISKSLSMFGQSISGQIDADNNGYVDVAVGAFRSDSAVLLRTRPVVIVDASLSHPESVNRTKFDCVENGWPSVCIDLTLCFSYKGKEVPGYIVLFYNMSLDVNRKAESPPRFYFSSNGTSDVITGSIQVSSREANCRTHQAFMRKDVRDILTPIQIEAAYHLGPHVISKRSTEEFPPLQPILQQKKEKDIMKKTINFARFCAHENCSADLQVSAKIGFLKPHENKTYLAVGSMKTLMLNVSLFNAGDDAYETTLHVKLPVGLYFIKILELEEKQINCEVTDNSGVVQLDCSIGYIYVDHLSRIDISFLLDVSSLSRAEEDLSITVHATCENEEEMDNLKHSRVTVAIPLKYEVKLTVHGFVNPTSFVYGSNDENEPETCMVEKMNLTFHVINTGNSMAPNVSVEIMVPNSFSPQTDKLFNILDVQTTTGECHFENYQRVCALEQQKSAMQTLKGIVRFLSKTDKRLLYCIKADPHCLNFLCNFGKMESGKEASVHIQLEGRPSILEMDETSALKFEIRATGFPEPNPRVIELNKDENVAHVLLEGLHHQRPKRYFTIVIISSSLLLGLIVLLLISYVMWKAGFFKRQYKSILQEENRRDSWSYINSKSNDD
T1 sequence (P26010 20-798): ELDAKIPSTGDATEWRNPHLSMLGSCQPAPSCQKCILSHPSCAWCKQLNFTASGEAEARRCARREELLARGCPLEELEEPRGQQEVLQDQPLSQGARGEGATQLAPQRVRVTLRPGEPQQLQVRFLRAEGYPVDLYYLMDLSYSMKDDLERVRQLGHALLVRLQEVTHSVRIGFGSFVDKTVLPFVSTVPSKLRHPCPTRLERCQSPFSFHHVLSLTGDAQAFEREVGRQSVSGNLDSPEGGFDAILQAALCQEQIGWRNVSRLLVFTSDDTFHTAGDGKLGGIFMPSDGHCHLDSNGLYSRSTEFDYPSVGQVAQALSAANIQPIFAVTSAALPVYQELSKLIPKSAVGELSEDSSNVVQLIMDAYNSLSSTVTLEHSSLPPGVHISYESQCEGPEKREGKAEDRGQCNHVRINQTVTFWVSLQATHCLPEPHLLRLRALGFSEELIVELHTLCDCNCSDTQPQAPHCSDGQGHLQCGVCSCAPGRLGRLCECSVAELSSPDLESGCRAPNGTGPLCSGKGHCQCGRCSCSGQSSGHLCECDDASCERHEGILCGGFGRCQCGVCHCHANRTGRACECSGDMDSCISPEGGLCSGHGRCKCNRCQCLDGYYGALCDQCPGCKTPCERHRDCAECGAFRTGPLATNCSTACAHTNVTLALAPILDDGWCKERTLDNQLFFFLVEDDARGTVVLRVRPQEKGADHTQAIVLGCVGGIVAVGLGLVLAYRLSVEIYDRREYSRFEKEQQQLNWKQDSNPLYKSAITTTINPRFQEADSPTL
Description: Alpha4-Beta7 Assay (MadCAM/RPMI 8866 cell adhesion). In kind it is cell-based. The conditions noted are these: calcein labeled RPMI 8866 cells adhering to immobilized MadCAM. The procedure:
Alpha4-Beta7 Assay Protocol
Two weeks to one day prior to the assay, Nunc high-binding F96 Maxisorp immuno plates, #442404 or #439454, were coated with 25 ng/well (0.25 μg/ml) MadCAM in a volume of 100 μl/well. The plates were covered with sealer and wrapped in saran wrap followed by incubation in the refrigerator for at least 24 hours. The coating buffer employed was: 10 mM carbonate/bicarbonate buffer made up from: 0.8 g/L sodium carbonate and 1.55 g/L sodium bicarbonate adjusted to pH 9.6 with 1 N HCl. Assay buffers consisted of the following:
Plates were washed 2× with wash buffer and then blocked at room temperature for at least 1 hour with Blocking Buffer. Sealed plates were sometimes blocked overnight in the refrigerator. Plates were then washed with PBS and hand blotted dry. Remaining liquid was aspirated from the wells.
Sufficient RPMI 8866 cells were removed from stock for assay (2×10^6 cells/ml×10 ml/plate×number of plates) and placed in a centrifuge tube. The tubes were filled to volume with PBS and were spun at 200×G for 8 minutes. The buffer was poured off and the cells were resuspended to 10×10^6/ml in PBS and a stock solution of calcein in DMSO (5mg/mL) was added at 51 μl/ml of cell suspension. The suspension was incubated for 30 minutes at 37° C. in dark. The cells were then washed with PBS. The PBS was poured off and the cells resuspended in cell buffer at a concentration of 2×10^6 cells/mL for plating in the assay.
Stock solution of test compounds at 25× first dilution desired in 100% DMSO were prepared. First dilutions for the standard, as well as test compounds, were 1:25 into straight Binding Buffer, while the remaining serial dilutions were into Dilution Buffer (Binding Buffer/4% DMSO). Stock concentrations and dilutions of compounds for screening were determined by anticipated activity.
For the assay, 129 μl Binding Buffer was plated into first row of wells and 100 μl Dilution Buffer was plated into remaining wells. A 5.44 μl aliquot of each compound was pipetted into appropriate, labeled wells, in triplicate. The compounds were next diluted down the plate (34 μl+100 μl=>4-fold dilution). For controls, 100 μl of Dilution Buffer 100 μl Cell Buffer were plated into the nonspecific background wells (no cells, no compound) and 100 μl Dilution Buffer+100 μl cells were plated into the total binding wells (no compound=100% binding). Labeled cells at 2×10^6 cells/ml, 100 μl/well (=2×10^5 cells/well) were added to each well containing compound. The plates were sealed and incubated in the dark for 45 minutes at room temperature. Following incubation, unbound cells were removed by adding 150 μl PBS/well. The plates were inverted, blotted onto paper towels and washed by gently adding 200 μl PBS to wells and blotting again. Remaining buffer was carefully aspirated from the wells. A final 100 μl PBS was added to each well.
The plates were then read for fluorescence intensity on a Cytofluor 2300 (Millipore) fluorecence measurement system (excitation=485 nm, emission=530 nm). IC50s of each compound were determined by linear regression analysis.

pIC50: −log10 of the molar value.

The compound `CCCc1cccc(Cl)c1C(=O)N[C@@H](Cc1ccc(-c2c(C)n(C)c(=O)n(C)c2=O)cc1)C(=O)O` [Example 16, N-[(2-chloro-6-propylphenyl)carbonyl]-4-(1,3,6-trimethyl-2,4-dioxo-5-pyrimidinyl)-L-phenylalanine] yielded a melting point of 225 to 227 °C. Besides, on alpha4-beta7, the pIC50 is over 5.00.
For `Cn1c(C(F)(F)F)c(-c2ccc(C[C@H](NC(=O)c3c(Cl)cccc3Cl)C(=O)O)cc2)c(=O)n(C)c1=O` [Example 21, N-[1-(2,6-dichlorophenyl)carbonyl]-4-(1,3-dimethyl-2,4-dioxo-6-(trifluoromethyl)-5-pyrimidinyl)-L-phenylalanine], in that order: 125 to 128 °C and over 5.00.
`Cc1cccc(Cl)c1C(=O)N[C@@H](Cc1ccc(-c2c(C(F)(F)F)n(C)c(=O)n(C)c2=O)cc1)C(=O)O` [Example 22, N-[(2-chloro-6-methylphenyl)carbonyl]-4-[1,3-dimethyl-2,4-dioxo-6-(trifluoromethyl)-5-pyrimidinyl]-L-phenylalanine] showed a melting point of 243 to 247 °C. Also, the pIC50 on alpha4-beta7 is over 5.00.
In turn, `Cn1c(C(F)(F)F)c(-c2ccc(C[C@H](NC(=O)c3c(F)cccc3C(F)(F)F)C(=O)O)cc2)c(=O)n(C)c1=O` [Example 23, N-[[2-fluoro-6-(trifluoromethyl)phenyl]carbonyl]-4-(1,3-dimethyl-2,4-dioxo-6-(trifluoromethyl)-5-pyrimidinyl)-L-phenylalanine] showed a melting point of 122 to 125 °C. Moreover, on alpha4-beta7, the pIC50 is over 5.00.
`Cc1cc(C[C@H](NC(=O)c2c(C)cccc2Cl)C(=O)O)ccc1-c1cn(C)c(=O)n(C)c1=O` [Example 24, N-[(2-chloro-6-methylphenyl)carbonyl]-4-(1,3-dimethyl-2,4-dioxo-5-pyrimidinyl)-3-methyl-L-phenylalanine] returned a melting point of 109 to 111 °C. Moreover, the pIC50 at alpha4-beta7 is over 5.00.

Broadly, the melting point is the temperature, or range, at which the solid turns liquid. A word on the pIC50: it is −log10 of the IC50, conventionally taken in molar units.
